Values after ≈ are worked out from the molar mass of the structure shown. Active and inactive are the calls of the source. No cut-off for these calls is given here.
test system: HL-60(TB); assay: Growth inhibition of human HL-60(TB) cells at 10^-5 M incubated for 48 hrs by sulforhodamine B assay relative to control; type: functional; settings: not given

Row | Compound | growth inhibition (GI)
1 | Clc1nc2ccc(Br)cc2cc1Cn1nnnc1CSc1ccccc1 | Active

test system: K562; assay: Growth inhibition of human K562 cells at 10^-5 M incubated for 48 hrs by sulforhodamine B assay relative to control; type: functional; settings: not given

Row | Compound | growth inhibition (GI)
2 | Clc1nc2ccc(Br)cc2cc1Cn1nnnc1CSc1ccccc1 | Active

test system: MOLT-4; assay: Growth inhibition of human MOLT4 cells at 10^-5 M incubated for 48 hrs by sulforhodamine B assay relative to control; type: functional; settings: not given

Row | Compound | growth inhibition (GI)
3 | Clc1nc2ccc(Br)cc2cc1Cn1nnnc1CSc1ccccc1 | Active

test system: SR; assay: Growth inhibition of human SR cells at 10^-5 M incubated for 48 hrs by sulforhodamine B assay relative to control; type: functional; settings: not given

Row | Compound | growth inhibition (GI)
4 | Clc1nc2ccc(Br)cc2cc1Cn1nnnc1CSc1ccccc1 | Active

test system: A549; assay: Growth inhibition of human A549/ATCC cells at 10^-5 M incubated for 48 hrs by sulforhodamine B assay relative to control; type: functional; settings: not given

Row | Compound | growth inhibition (GI)
5 | Clc1nc2ccc(Br)cc2cc1Cn1nnnc1CSc1ccccc1 | Active

test system: EKVX; assay: Growth inhibition of human EKVX cells at 10^-5 M incubated for 48 hrs by sulforhodamine B assay relative to control; type: functional; settings: not given

Row | Compound | growth inhibition (GI)
6 | Clc1nc2ccc(Br)cc2cc1Cn1nnnc1CSc1ccccc1 | Active

test system: NCI-H226; assay: Growth inhibition of human NCI-H226 cells at 10^-5 M incubated for 48 hrs by sulforhodamine B assay relative to control; type: functional; settings: not given

Row | Compound | growth inhibition (GI)
7 | Clc1nc2ccc(Br)cc2cc1Cn1nnnc1CSc1ccccc1 | Active

test system: NCI-H23; assay: Growth inhibition of human NCI-H23 cells at 10^-5 M incubated for 48 hrs by sulforhodamine B assay relative to control; type: functional; settings: not given

Row | Compound | growth inhibition (GI)
8 | Clc1nc2ccc(Br)cc2cc1Cn1nnnc1CSc1ccccc1 | Active

test system: COLO 205; assay: Growth inhibition of human COLO205 cells at 10^-5 M incubated for 48 hrs by sulforhodamine B assay relative to control; type: functional; settings: not given

Row | Compound | growth inhibition (GI)
9 | Clc1nc2ccc(Br)cc2cc1Cn1nnnc1CSc1ccccc1 | Active

test system: HCC 2998; assay: Growth inhibition of human HCC2998 cells at 10^-5 M incubated for 48 hrs by sulforhodamine B assay relative to control; type: functional; settings: not given

Row | Compound | growth inhibition (GI)
10 | Clc1nc2ccc(Br)cc2cc1Cn1nnnc1CSc1ccccc1 | Active

test system: HCT-15; assay: Growth inhibition of human HCT15 cells at 10^-5 M incubated for 48 hrs by sulforhodamine B assay relative to control; type: functional; settings: not given

Row | Compound | growth inhibition (GI)
11 | Clc1nc2ccc(Br)cc2cc1Cn1nnnc1CSc1ccccc1 | Active

test system: HT-29; assay: Growth inhibition of human HT-29 cells at 10^-5 M incubated for 48 hrs by sulforhodamine B assay relative to control; type: functional; settings: not given

Row | Compound | growth inhibition (GI)
12 | Clc1nc2ccc(Br)cc2cc1Cn1nnnc1CSc1ccccc1 | Active

test system: KM12; assay: Growth inhibition of human KM12 cells at 10^-5 M incubated for 48 hrs by sulforhodamine B assay relative to control; type: functional; settings: not given

Row | Compound | growth inhibition (GI)
13 | Clc1nc2ccc(Br)cc2cc1Cn1nnnc1CSc1ccccc1 | Active

test system: SW-620; assay: Growth inhibition of human SW620 cells at 10^-5 M incubated for 48 hrs by sulforhodamine B assay relative to control; type: functional; settings: not given

Row | Compound | growth inhibition (GI)
14 | Clc1nc2ccc(Br)cc2cc1Cn1nnnc1CSc1ccccc1 | Active

test system: SF-268; assay: Growth inhibition of human SF268 cells at 10^-5 M incubated for 48 hrs by sulforhodamine B assay relative to control; type: functional; settings: not given

Row | Compound | growth inhibition (GI)
15 | Clc1nc2ccc(Br)cc2cc1Cn1nnnc1CSc1ccccc1 | Active

test system: SF-295; assay: Growth inhibition of human SF295 cells at 10^-5 M incubated for 48 hrs by sulforhodamine B assay relative to control; type: functional; settings: not given

Row | Compound | growth inhibition (GI)
16 | Clc1nc2ccc(Br)cc2cc1Cn1nnnc1CSc1ccccc1 | Active

test system: SF-539; assay: Growth inhibition of human SF539 cells at 10^-5 M incubated for 48 hrs by sulforhodamine B assay relative to control; type: functional; settings: not given

Row | Compound | growth inhibition (GI)
17 | Clc1nc2ccc(Br)cc2cc1Cn1nnnc1CSc1ccccc1 | Active

test system: SNB-19; assay: Growth inhibition of human SNB19 cells at 10^-5 M incubated for 48 hrs by sulforhodamine B assay relative to control; type: functional; settings: not given

Row | Compound | growth inhibition (GI)
18 | Clc1nc2ccc(Br)cc2cc1Cn1nnnc1CSc1ccccc1 | Active

test system: SNB-75; assay: Growth inhibition of human SNB75 cells at 10^-5 M incubated for 48 hrs by sulforhodamine B assay relative to control; type: functional; settings: not given

Row | Compound | growth inhibition (GI)
19 | Clc1nc2ccc(Br)cc2cc1Cn1nnnc1CSc1ccccc1 | Active

test system: U-251; assay: Growth inhibition of human U251 cells at 10^-5 M incubated for 48 hrs by sulforhodamine B assay relative to control; type: functional; settings: not given

Row | Compound | growth inhibition (GI)
20 | Clc1nc2ccc(Br)cc2cc1Cn1nnnc1CSc1ccccc1 | Active

test system: LOX IMVI; assay: Growth inhibition of human LOXIMVI cells at 10^-5 M incubated for 48 hrs by sulforhodamine B assay relative to control; type: functional; settings: not given

Row | Compound | growth inhibition (GI)
21 | Clc1nc2ccc(Br)cc2cc1Cn1nnnc1CSc1ccccc1 | Active

test system: M14; assay: Growth inhibition of human M14 cells at 10^-5 M incubated for 48 hrs by sulforhodamine B assay relative to control; type: functional; settings: not given

Row | Compound | growth inhibition (GI)
22 | Clc1nc2ccc(Br)cc2cc1Cn1nnnc1CSc1ccccc1 | Active

test system: SK-MEL-28; assay: Growth inhibition of human SK-MEL-28 cells at 10^-5 M incubated for 48 hrs by sulforhodamine B assay relative to control; type: functional; settings: not given

Row | Compound | growth inhibition (GI)
23 | Clc1nc2ccc(Br)cc2cc1Cn1nnnc1CSc1ccccc1 | Active

test system: SK-MEL-5; assay: Growth inhibition of human SK-MEL-5 cells at 10^-5 M incubated for 48 hrs by sulforhodamine B assay relative to control; type: functional; settings: not given

Row | Compound | growth inhibition (GI)
24 | Clc1nc2ccc(Br)cc2cc1Cn1nnnc1CSc1ccccc1 | Active

test system: UACC-257; assay: Growth inhibition of human UACC257 cells at 10^-5 M incubated for 48 hrs by sulforhodamine B assay relative to control; type: functional; settings: not given

Row | Compound | growth inhibition (GI)
25 | Clc1nc2ccc(Br)cc2cc1Cn1nnnc1CSc1ccccc1 | Active

test system: UACC-62; assay: Growth inhibition of human UACC62 cells at 10^-5 M incubated for 48 hrs by sulforhodamine B assay relative to control; type: functional; settings: not given

Row | Compound | growth inhibition (GI)
26 | Clc1nc2ccc(Br)cc2cc1Cn1nnnc1CSc1ccccc1 | Active

test system: OVCAR-3; assay: Growth inhibition of human OVCAR3 cells at 10^-5 M incubated for 48 hrs by sulforhodamine B assay relative to control; type: functional; settings: not given

Row | Compound | growth inhibition (GI)
27 | Clc1nc2ccc(Br)cc2cc1Cn1nnnc1CSc1ccccc1 | Active

test system: OVCAR-4; assay: Growth inhibition of human OVCAR4 cells at 10^-5 M incubated for 48 hrs by sulforhodamine B assay relative to control; type: functional; settings: not given

Row | Compound | growth inhibition (GI)
28 | Clc1nc2ccc(Br)cc2cc1Cn1nnnc1CSc1ccccc1 | Active

test system: OVCAR-5; assay: Growth inhibition of human OVCAR5 cells at 10^-5 M incubated for 48 hrs by sulforhodamine B assay relative to control; type: functional; settings: not given

Row | Compound | growth inhibition (GI)
29 | Clc1nc2ccc(Br)cc2cc1Cn1nnnc1CSc1ccccc1 | Active

test system: OVCAR-8; assay: Growth inhibition of human OVCAR8 cells at 10^-5 M incubated for 48 hrs by sulforhodamine B assay relative to control; type: functional; settings: not given

Row | Compound | growth inhibition (GI)
30 | Clc1nc2ccc(Br)cc2cc1Cn1nnnc1CSc1ccccc1 | Active

test system: SK-OV-3; assay: Growth inhibition of human SKOV3 cells at 10^-5 M incubated for 48 hrs by sulforhodamine B assay relative to control; type: functional; settings: not given

Row | Compound | growth inhibition (GI)
31 | Clc1nc2ccc(Br)cc2cc1Cn1nnnc1CSc1ccccc1 | Active

test system: 786-0; assay: Growth inhibition of human 786-0 cells at 10^-5 M incubated for 48 hrs by sulforhodamine B assay relative to control; type: functional; settings: not given

Row | Compound | growth inhibition (GI)
32 | Clc1nc2ccc(Br)cc2cc1Cn1nnnc1CSc1ccccc1 | Active

test system: ACHN; assay: Growth inhibition of human ACHN cells at 10^-5 M incubated for 48 hrs by sulforhodamine B assay relative to control; type: functional; settings: not given

Row | Compound | growth inhibition (GI)
33 | Clc1nc2ccc(Br)cc2cc1Cn1nnnc1CSc1ccccc1 | Active

test system: RXF 393; assay: Growth inhibition of human RXF393 cells at 10^-5 M incubated for 48 hrs by sulforhodamine B assay relative to control; type: functional; settings: not given

Row | Compound | growth inhibition (GI)
34 | Clc1nc2ccc(Br)cc2cc1Cn1nnnc1CSc1ccccc1 | Active

test system: SN12C; assay: Growth inhibition of human SN12C cells at 10^-5 M incubated for 48 hrs by sulforhodamine B assay relative to control; type: functional; settings: not given

Row | Compound | growth inhibition (GI)
35 | Clc1nc2ccc(Br)cc2cc1Cn1nnnc1CSc1ccccc1 | Active

test system: TK-10; assay: Growth inhibition of human TK10 cells at 10^-5 M incubated for 48 hrs by sulforhodamine B assay relative to control; type: functional; settings: not given

Row | Compound | growth inhibition (GI)
36 | Clc1nc2ccc(Br)cc2cc1Cn1nnnc1CSc1ccccc1 | Active

test system: UO-31; assay: Growth inhibition of human UO31 cells at 10^-5 M incubated for 48 hrs by sulforhodamine B assay relative to control; type: functional; settings: not given

Row | Compound | growth inhibition (GI)
37 | Clc1nc2ccc(Br)cc2cc1Cn1nnnc1CSc1ccccc1 | Active

test system: MCF7; assay: Growth inhibition of human MCF7 cells at 10^-5 M incubated for 48 hrs by sulforhodamine B assay relative to control; type: functional; settings: not given

Row | Compound | growth inhibition (GI)
38 | Clc1nc2ccc(Br)cc2cc1Cn1nnnc1CSc1ccccc1 | Active

test system: MDA-MB-231; assay: Growth inhibition of human MDA-MB-231/ATCC cells at 10^-5 M incubated for 48 hrs by sulforhodamine B assay relative to control; type: functional; settings: not given

Row | Compound | growth inhibition (GI)
39 | Clc1nc2ccc(Br)cc2cc1Cn1nnnc1CSc1ccccc1 | Active

test system: Hs-578T; assay: Growth inhibition of human Hs 578T cells at 10^-5 M incubated for 48 hrs by sulforhodamine B assay relative to control; type: functional; settings: not given

Row | Compound | growth inhibition (GI)
40 | Clc1nc2ccc(Br)cc2cc1Cn1nnnc1CSc1ccccc1 | Active

test system: BT-549; assay: Growth inhibition of human BT549 cells at 10^-5 M incubated for 48 hrs by sulforhodamine B assay relative to control; type: functional; settings: not given

Row | Compound | growth inhibition (GI)
41 | Clc1nc2ccc(Br)cc2cc1Cn1nnnc1CSc1ccccc1 | Active

test system: T47D; assay: Growth inhibition of human T47D cells at 10^-5 M incubated for 48 hrs by sulforhodamine B assay relative to control; type: functional; settings: not given

Row | Compound | growth inhibition (GI)
42 | Clc1nc2ccc(Br)cc2cc1Cn1nnnc1CSc1ccccc1 | Active

test system: Candida albicans; assay: Antifungal activity against Candida albicans after 24 hrs by serial dilution method; type: functional; settings: not given

Row | Compound | MIC [µg/mL]
43 | Clc1nc2ccc(Br)cc2cc1Cn1nnnc1CSc1ccccc1 | 25 (≈ 56 µM)

test system: Aspergillus fumigatus; assay: Antifungal activity against Aspergillus fumigatus at 100 ug/ml by disc diffusion method; type: functional; settings: read-out: IZ

Row | Compound | zone of inhibition at 100 µg/mL [mm]
44 | Clc1nc2ccc(Br)cc2cc1Cn1nnnc1CSc1ccccc1 | 20

test system: Aspergillus fumigatus; assay: Antifungal activity against Aspergillus fumigatus after 24 hrs by serial dilution method; type: functional; settings: not given

Row | Compound | MIC [µg/mL]
45 | Clc1nc2ccc(Br)cc2cc1Cn1nnnc1CSc1ccccc1 | 5 (≈ 11.2 µM)
